Where “and” joins values, the source holds several entries; their conditions need not be identical. Equal entries are not always repeated. Inconclusive results and toxic doses are left out. How the source made its calls: active means survival T/C of 150% or more; inactive means T/C below 125% in these data.
Tested on: BDF1 mice, B16 melanoma ip, median survival T/C
Experiment: NCI In Vivo Anticancer Drug Screen. Data for tumor model B16 Melanoma (intraperitoneal) in B6D2F1 (BDF1) mice
Settings: endpoint: median survival time, higher = longer survival
Summary of the method: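 Transplantable tumor model; survival or tumor size measured; reported as T/C, treated over vehicle control.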

Measured: T/C

COc1cccc2c1C(=O)c1c(O)c3c(c(O)c1C2=O)C[C@@](O)(C(C)=O)C[C@@H]3OC1CC(N)C(O)C(C)O1 (stereo not given in full)
inactive: dose: 0.5 mg/kg/injection, schedule: Q11DX018 (sc), vehicle: water 100 % of control | dose: 1.0 mg/kg/injection, schedule: Q11DX018 (sc), vehicle: water 111 % of control | dose: 2.0 mg/kg/injection, schedule: Q05DX010 (ip), vehicle: clinical formulation 110 % of control | dose: 6.0 mg/kg/injection, schedule: Q01DX001 (ip), vehicle: water 94 % of control and 103 % of control | dose: 7.5 mg/kg/injection, schedule: Q01DX001 (ip), vehicle: water 107 % of control and 122 % of control | dose: 10.0 mg/kg/injection, schedule: Q01DX001 (ip), vehicle: water 110 % of control
active: dose: 0.06 mg/kg/injection, schedule: Q01DX017 (ip), vehicle: clinical formulation 184 % of control | dose: 0.06 mg/kg/injection, schedule: Q05DX010 (ip), vehicle: clinical formulation 160 % of control | dose: 0.12 mg/kg/injection, schedule: Q01DX009 (ip), vehicle: clinical formulation 168 % of control | dose: 0.12 mg/kg/injection, schedule: Q01DX017 (ip), vehicle: clinical formulation 178 % of control | dose: 0.12 mg/kg/injection, schedule: Q05DX010 (ip), vehicle: clinical formulation 165 % of control | dose: 0.13 mg/kg/injection, schedule: Q01DX009 (ip), vehicle: water 189 % of control | dose: 0.2 mg/kg/injection, schedule: Q01DX009 (ip), vehicle: saline 170 % of control | dose: 0.25 mg/kg/injection, schedule: Q01DX009 (ip), vehicle: clinical formulation 192 % of control | dose: 0.25 mg/kg/injection, schedule: Q01DX017 (ip), vehicle: clinical formulation 226 % of control | dose: 0.25 mg/kg/injection, schedule: Q03HX008 (ip), vehicle: saline 152 % of control | dose: 0.25 mg/kg/injection, schedule: Q04DX003 (ip), vehicle: clinical formulation 162 % of control | dose: 0.25 mg/kg/injection, schedule: Q04DX005 (ip), vehicle: clinical formulation 165 % of control | dose: 0.25 mg/kg/injection, schedule: Q05DX010 (ip), vehicle: clinical formulation 237 % of control | dose: 0.39 mg/kg/injection, schedule: Q01DX009 (ip), vehicle: saline 212 % of control | dose: 0.5 mg/kg/injection, schedule: Q01DX009 (ip), vehicle: clinical formulation 292 % of control | dose: 0.5 mg/kg/injection, schedule: Q01DX017 (ip), vehicle: clinical formulation 315 % of control | dose: 0.5 mg/kg/injection, schedule: Q04DX005 (ip), vehicle: clinical formulation 215 % of control | dose: 0.5 mg/kg/injection, schedule: Q05DX010 (ip), vehicle: clinical formulation 235 % of control | dose: 0.78 mg/kg/injection, schedule: Q01DX009 (ip), vehicle: saline 238 % of control | dose: 1.0 mg/kg/injection, schedule: Q01DX001 (ip), vehicle: clinical formulation 223 % of control | dose: 1.0 mg/kg/injection, schedule: Q01DX009 (ip), vehicle: clinical formulation 204 % of control | dose: 1.0 mg/kg/injection, schedule: Q01DX017 (ip), vehicle: clinical formulation 213 % of control | dose: 1.0 mg/kg/injection, schedule: Q04DX003 (ip), vehicle: clinical formulation 217 % of control | dose: 1.0 mg/kg/injection, schedule: Q04DX005 (ip), vehicle: clinical formulation 194 % of control | dose: 1.0 mg/kg/injection, schedule: Q05DX010 (ip), vehicle: clinical formulation 200 % of control | dose: 1.5 mg/kg/injection, schedule: Q01DX001 (ip), vehicle: water 287 % of control | dose: 1.56 mg/kg/injection, schedule: Q01DX009 (ip), vehicle: saline 150 % of control | dose: 2.0 mg/kg/injection, schedule: Q01DX001 (ip), vehicle: clinical formulation 204 % of control | dose: 2.0 mg/kg/injection, schedule: Q01DX009 (ip), vehicle: clinical formulation 187 % of control | dose: 2.0 mg/kg/injection, schedule: Q04DX003 (ip), vehicle: clinical formulation 215 % of control | dose: 2.0 mg/kg/injection, schedule: Q04DX005 (ip), vehicle: clinical formulation 160 % of control | dose: 3.0 mg/kg/injection, schedule: Q01DX001 (ip), vehicle: water 287 % of control | dose: 4.0 mg/kg/injection, schedule: Q01DX001 (ip), vehicle: clinical formulation 285 % of control

S=C1SCN(Cc2ccccc2)CN1Cc1ccccc1
inactive: dose: 25.0 mg/kg/injection, schedule: Q01DX009 (ip), vehicle: Klucel (hydroxypropylcellulose) (HPC) 102 % of control and 120 % of control | dose: 50.0 mg/kg/injection, schedule: Q01DX009 (ip), vehicle: Klucel (hydroxypropylcellulose) (HPC) 102 % of control and 108 % of control | dose: 100.0 mg/kg/injection, schedule: Q01DX009 (ip), vehicle: Klucel (hydroxypropylcellulose) (HPC) 90 % of control and 97 % of control and 105 % of control

CC1CNC(=O)O1 (stereo not given)
inactive: dose: 25.0 mg/kg/injection, schedule: Q01DX009 (ip), vehicle: saline 104 % of control | dose: 50.0 mg/kg/injection, schedule: Q01DX009 (ip), vehicle: saline 100 % of control | dose: 100.0 mg/kg/injection, schedule: Q01DX009 (ip), vehicle: saline 100 % of control | dose: 200.0 mg/kg/injection, schedule: Q01DX009 (ip), vehicle: saline 92 % of control | dose: 400.0 mg/kg/injection, schedule: Q01DX009 (ip), vehicle: saline 97 % of control

O=C1C2CC=CCC2C(=O)N1SC(Cl)(Cl)Cl (stereo not given)
inactive: dose: 0.2 mg/kg/injection, schedule: Q01DX009 (ip), vehicle: saline with Tween-80 98 % of control | dose: 0.4 mg/kg/injection, schedule: Q01DX009 (ip), vehicle: saline with Tween-80 100 % of control | dose: 0.8 mg/kg/injection, schedule: Q01DX009 (ip), vehicle: saline with Tween-80 97 % of control | dose: 3.13 mg/kg/injection, schedule: Q01DX009 (ip), vehicle: saline with Tween-80 88 % of control

OCC1OC(n2nnc3cc[nH]c(=S)c32)C(O)C1O (stereo not given)
inactive: dose: 3.13 mg/kg/injection, schedule: Q01DX009 (ip), vehicle: water 97 % of control | dose: 6.25 mg/kg/injection, schedule: Q01DX009 (ip), vehicle: water 113 % of control | dose: 12.5 mg/kg/injection, schedule: Q01DX009 (ip), vehicle: water 101 % of control | dose: 25.0 mg/kg/injection, schedule: Q01DX009 (ip), vehicle: water 101 % of control

From PubChem BioAssay AID192 (DTP/NCI, 2004)
